# Results reported in patent publication US20240415914A1, “Water Dispersible Cannabinoid Compositions” (priority 2021, published 2024).
# Where two headings read alike, the source gives them in different places.
# Key:
# [1] = Stability of cannabinoid and Vitamin E components of Beverage 2 (AB Red) stored at 8° C. and 21-25° C., LCMSMS over 570 days; conditions: for Chemical stability over the entire period (result in words): AB Red
# Description: The LCMSMS was calibrated for 0-50 ng/ml cannabinoids with the same resin material used in the preparation of the concentrates. At each time period, 100 μml of beverage was diluted with 10 ml of methanol and injected into the LCMSMS for analysis.
# [2] = assay type: physicochemical; conditions: for Stability in Powder Concentrate (content by LCMSMS): stored at room temperature (21-25° C.)
# Description: At each time period, 0.05 g of powder was dissolved in 10 ml-15 of ethanol, diluted to fall within the analytical range, and injected into the LCMSMS for analysis.
smiles,measurement,setting,value
"CCCCCc1cc(O)c2c(c1)OC(C)(C)[C@@H]1CCC(C)=C[C@@H]21 [D9 THC, delta-9-tetrahydrocannabinol, reference compound]",Stability of Cannabinoids in AB Red,"[1]; 8° C., 0 days",12.9 µg/mL
same,Stability of Cannabinoids in AB Red,"[1]; 8° C., 1 days",13.0 µg/mL
same,Stability of Cannabinoids in AB Red,"[1]; 8° C., 2 days",13.0 µg/mL
same,Stability of Cannabinoids in AB Red,"[1]; 8° C., 3 days",12.7 µg/mL
same,Stability of Cannabinoids in AB Red,"[1]; 8° C., 5 days",13.0 µg/mL
same,Stability of Cannabinoids in AB Red,"[1]; 8° C., 8 days",12.6 µg/mL
same,Stability of Cannabinoids in AB Red,"[1]; 8° C., 9 days",12.7 µg/mL
same,Stability of Cannabinoids in AB Red,"[1]; 8° C., 10 days",12.8 µg/mL
same,Stability of Cannabinoids in AB Red,"[1]; 8° C., 11 days",12.8 µg/mL
same,Stability of Cannabinoids in AB Red,"[1]; 8° C., 12 days",12.9 µg/mL
same,Stability of Cannabinoids in AB Red,"[1]; 8° C., 15 days",12.9 µg/mL
same,Stability of Cannabinoids in AB Red,"[1]; 8° C., 16 days",12.7 µg/mL
same,Stability of Cannabinoids in AB Red,"[1]; 8° C., 17 days",12.6 µg/mL
same,Stability of Cannabinoids in AB Red,"[1]; 8° C., 18 days",12.8 µg/mL
same,Stability of Cannabinoids in AB Red,"[1]; 8° C., 19 days",12.7 µg/mL
same,Stability of Cannabinoids in AB Red,"[1]; 8° C., 22 days",12.7 µg/mL
same,Stability of Cannabinoids in AB Red,"[1]; 8° C., 23 days",12.9 µg/mL
same,Stability of Cannabinoids in AB Red,"[1]; 8° C., 24 days",12.9 µg/mL
same,Stability of Cannabinoids in AB Red,"[1]; 8° C., 25 days",12.9 µg/mL
same,Stability of Cannabinoids in AB Red,"[1]; 8° C., 26 days",12.7 µg/mL
same,Stability of Cannabinoids in AB Red,"[1]; 8° C., 29 days",12.7 µg/mL
same,Stability of Cannabinoids in AB Red,"[1]; 8° C., 30 days",12.9 µg/mL
same,Stability of Cannabinoids in AB Red,"[1]; 8° C., 60 days",12.5 µg/mL
same,Stability of Cannabinoids in AB Red,"[1]; 8° C., 90 days",13.0 µg/mL
same,Stability of Cannabinoids in AB Red,"[1]; 8° C., 120 days",12.4 µg/mL
same,Stability of Cannabinoids in AB Red,"[1]; 8° C., 150 days",12.8 µg/mL
same,Stability of Cannabinoids in AB Red,"[1]; 8° C., 180 days",12.6 µg/mL
same,Stability of Cannabinoids in AB Red,"[1]; 8° C., 210 days",12.3 µg/mL
same,Stability of Cannabinoids in AB Red,"[1]; 8° C., 240 days",12.4 µg/mL
same,Stability of Cannabinoids in AB Red,"[1]; 8° C., 270 days",12.6 µg/mL
same,Stability of Cannabinoids in AB Red,"[1]; 8° C., 300 days",12.4 µg/mL
same,Stability of Cannabinoids in AB Red,"[1]; 8° C., 330 days",12.7 µg/mL
same,Stability of Cannabinoids in AB Red,"[1]; 8° C., 390 days",12.4 µg/mL
same,Stability of Cannabinoids in AB Red,"[1]; 8° C., 420 days",12.4 µg/mL
same,Stability of Cannabinoids in AB Red,"[1]; 8° C., 450 days",12.4 µg/mL
same,Stability of Cannabinoids in AB Red,"[1]; 8° C., 480 days",12.2 µg/mL
same,Stability of Cannabinoids in AB Red,"[1]; 8° C., 510 days",12.0 µg/mL
same,Stability of Cannabinoids in AB Red,"[1]; 8° C., 540 days",11.9 µg/mL
same,Stability of Cannabinoids in AB Red,"[1]; 8° C., 570 days",11.8 µg/mL
same,Stability of Cannabinoids in AB Red,"[1]; 21-25° C., 0 days",12.9 µg/mL
same,Stability of Cannabinoids in AB Red,"[1]; 21-25° C., 1 days",13.0 µg/mL
same,Stability of Cannabinoids in AB Red,"[1]; 21-25° C., 2 days",13.0 µg/mL
same,Stability of Cannabinoids in AB Red,"[1]; 21-25° C., 3 days",12.6 µg/mL
same,Stability of Cannabinoids in AB Red,"[1]; 21-25° C., 5 days",12.4 µg/mL
same,Stability of Cannabinoids in AB Red,"[1]; 21-25° C., 8 days",12.7 µg/mL
same,Stability of Cannabinoids in AB Red,"[1]; 21-25° C., 9 days",12.8 µg/mL
same,Stability of Cannabinoids in AB Red,"[1]; 21-25° C., 10 days",12.5 µg/mL
same,Stability of Cannabinoids in AB Red,"[1]; 21-25° C., 11 days",12.9 µg/mL
same,Stability of Cannabinoids in AB Red,"[1]; 21-25° C., 12 days",13.0 µg/mL
same,Stability of Cannabinoids in AB Red,"[1]; 21-25° C., 15 days",12.7 µg/mL
same,Stability of Cannabinoids in AB Red,"[1]; 21-25° C., 16 days",12.4 µg/mL
same,Stability of Cannabinoids in AB Red,"[1]; 21-25° C., 17 days",12.9 µg/mL
same,Stability of Cannabinoids in AB Red,"[1]; 21-25° C., 18 days",12.8 µg/mL
same,Stability of Cannabinoids in AB Red,"[1]; 21-25° C., 19 days",12.8 µg/mL
same,Stability of Cannabinoids in AB Red,"[1]; 21-25° C., 22 days",12.9 µg/mL
same,Stability of Cannabinoids in AB Red,"[1]; 21-25° C., 23 days",12.9 µg/mL
same,Stability of Cannabinoids in AB Red,"[1]; 21-25° C., 24 days",12.5 µg/mL
same,Stability of Cannabinoids in AB Red,"[1]; 21-25° C., 25 days",12.5 µg/mL
same,Stability of Cannabinoids in AB Red,"[1]; 21-25° C., 26 days",12.4 µg/mL
same,Stability of Cannabinoids in AB Red,"[1]; 21-25° C., 29 days",12.7 µg/mL
same,Stability of Cannabinoids in AB Red,"[1]; 21-25° C., 30 days",12.4 µg/mL
same,Stability of Cannabinoids in AB Red,"[1]; 21-25° C., 60 days",12.2 µg/mL
same,Stability of Cannabinoids in AB Red,"[1]; 21-25° C., 90 days",12.8 µg/mL
same,Stability of Cannabinoids in AB Red,"[1]; 21-25° C., 120 days",12.4 µg/mL
same,Stability of Cannabinoids in AB Red,"[1]; 21-25° C., 150 days",12.4 µg/mL
same,Stability of Cannabinoids in AB Red,"[1]; 21-25° C., 180 days",12.8 µg/mL
same,Stability of Cannabinoids in AB Red,"[1]; 21-25° C., 210 days",12.4 µg/mL
same,Stability of Cannabinoids in AB Red,"[1]; 21-25° C., 240 days",12.5 µg/mL
same,Stability of Cannabinoids in AB Red,"[1]; 21-25° C., 270 days",12.5 µg/mL
same,Stability of Cannabinoids in AB Red,"[1]; 21-25° C., 300 days",12.4 µg/mL
same,Stability of Cannabinoids in AB Red,"[1]; 21-25° C., 330 days",12.1 µg/mL
same,Stability of Cannabinoids in AB Red,"[1]; 21-25° C., 390 days",12.1 µg/mL
same,Stability of Cannabinoids in AB Red,"[1]; 21-25° C., 420 days",12.2 µg/mL
same,Stability of Cannabinoids in AB Red,"[1]; 21-25° C., 450 days",12.2 µg/mL
same,Stability of Cannabinoids in AB Red,"[1]; 21-25° C., 480 days",11.8 µg/mL
same,Stability of Cannabinoids in AB Red,"[1]; 21-25° C., 510 days",12.3 µg/mL
same,Stability of Cannabinoids in AB Red,"[1]; 21-25° C., 540 days",12.2 µg/mL
same,Stability of Cannabinoids in AB Red,"[1]; 21-25° C., 570 days",11.8 µg/mL
same,Chemical stability over the entire period (result in words),"[1]; stored at 8° C., 570 days",high degree of stability
same,Chemical stability over the entire period (result in words),"[1]; stored at 21-25° C., 570 days",high degree of stability
same,Chemical stability over the entire period (result in words),"[2]; powder concentrate, room temperature (21-25° C.), 570 days",no significant degradation
same,Stability in Powder Concentrate (content by LCMSMS),[2]; day 0,2.55 mg/g powder
same,Stability in Powder Concentrate (content by LCMSMS),[2]; day 1,2.55 mg/g powder
same,Stability in Powder Concentrate (content by LCMSMS),[2]; day 2,2.46 mg/g powder
same,Stability in Powder Concentrate (content by LCMSMS),[2]; day 3,2.63 mg/g powder
same,Stability in Powder Concentrate (content by LCMSMS),[2]; day 5,2.66 mg/g powder
same,Stability in Powder Concentrate (content by LCMSMS),[2]; day 8,2.49 mg/g powder
same,Stability in Powder Concentrate (content by LCMSMS),[2]; day 9,2.49 mg/g powder
same,Stability in Powder Concentrate (content by LCMSMS),[2]; day 10,2.60 mg/g powder
same,Stability in Powder Concentrate (content by LCMSMS),[2]; day 11,2.58 mg/g powder
same,Stability in Powder Concentrate (content by LCMSMS),[2]; day 12,2.65 mg/g powder
same,Stability in Powder Concentrate (content by LCMSMS),[2]; day 15,2.49 mg/g powder
same,Stability in Powder Concentrate (content by LCMSMS),[2]; day 16,2.54 mg/g powder
same,Stability in Powder Concentrate (content by LCMSMS),[2]; day 17,2.54 mg/g powder
same,Stability in Powder Concentrate (content by LCMSMS),[2]; day 18,2.55 mg/g powder
same,Stability in Powder Concentrate (content by LCMSMS),[2]; day 19,2.51 mg/g powder
same,Stability in Powder Concentrate (content by LCMSMS),[2]; day 22,2.46 mg/g powder
same,Stability in Powder Concentrate (content by LCMSMS),[2]; day 23,2.65 mg/g powder
same,Stability in Powder Concentrate (content by LCMSMS),[2]; day 24,2.60 mg/g powder
same,Stability in Powder Concentrate (content by LCMSMS),[2]; day 25,2.55 mg/g powder
same,Stability in Powder Concentrate (content by LCMSMS),[2]; day 26,2.52 mg/g powder
same,Stability in Powder Concentrate (content by LCMSMS),[2]; day 29,2.47 mg/g powder
same,Stability in Powder Concentrate (content by LCMSMS),[2]; day 30,2.66 mg/g powder
same,Stability in Powder Concentrate (content by LCMSMS),[2]; day 60,2.66 mg/g powder
same,Stability in Powder Concentrate (content by LCMSMS),[2]; day 90,2.49 mg/g powder
same,Stability in Powder Concentrate (content by LCMSMS),[2]; day 120,2.66 mg/g powder
same,Stability in Powder Concentrate (content by LCMSMS),[2]; day 150,2.61 mg/g powder
same,Stability in Powder Concentrate (content by LCMSMS),[2]; day 180,2.59 mg/g powder
same,Stability in Powder Concentrate (content by LCMSMS),[2]; day 210,2.54 mg/g powder
same,Stability in Powder Concentrate (content by LCMSMS),[2]; day 240,2.53 mg/g powder
same,Stability in Powder Concentrate (content by LCMSMS),[2]; day 270,2.47 mg/g powder
same,Stability in Powder Concentrate (content by LCMSMS),[2]; day 300,2.57 mg/g powder
same,Stability in Powder Concentrate (content by LCMSMS),[2]; day 330,2.49 mg/g powder
same,Stability in Powder Concentrate (content by LCMSMS),[2]; day 360,2.58 mg/g powder
same,Stability in Powder Concentrate (content by LCMSMS),[2]; day 390,2.48 mg/g powder
same,Stability in Powder Concentrate (content by LCMSMS),[2]; day 420,2.53 mg/g powder
same,Stability in Powder Concentrate (content by LCMSMS),[2]; day 450,2.61 mg/g powder
same,Stability in Powder Concentrate (content by LCMSMS),[2]; day 480,2.65 mg/g powder
same,Stability in Powder Concentrate (content by LCMSMS),[2]; day 510,2.64 mg/g powder
same,Stability in Powder Concentrate (content by LCMSMS),[2]; day 540,2.47 mg/g powder
same,Stability in Powder Concentrate (content by LCMSMS),[2]; day 570,2.64 mg/g powder
